From PubChem BioAssay (NCI)
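Cultured in 96-well plates, cells were exposed to test compound for 48 hours across five concentrations. TGI: total growth inhibition.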

Tests used:
Assay in all cases: NCI tumour cell line growth inhibition, 48 h
[1] = tested on: NCI/ADR-RES ovarian
[2] = tested on: BT-549 breast
[3] = tested on: MDA-N
[4] = tested on: PC-3 prostate
[5] = tested on: T-47D breast
[6] = tested on: A549 NSCLC

| SMILES | TGI [1] [µM] | TGI [2] [µM] | TGI [3] [µM] | TGI [4] [µM] | TGI [5] [µM] | TGI [6] [µM] |
| --- | --- | --- | --- | --- | --- | --- |
| O=C(c1ccco1)C1CC(c2c(O)ccc3ccccc23)=NN1 (stereo not given) | 51.1 | 31 | 36.4 | 21.1 | 50.5 |  |
| O=[N+]([O-])c1ccc(C2=Nc3ccccc3SC(c3ccccc3)C2)cc1 (stereo not given) |  |  |  |  |  | 51.2 |
| COC(=O)C1=C(O)C(C(=O)OC)[C@@]2(O)[C@@H](C(=O)OC)[C@H](C)[C@@H](C)[C@@H]1[C@@H]2C(=O)OC (stereo not given in full) |  | > 100 | 50.1 |  | > 100 |  |
| O=C(OCc1ccccc1)C(Cc1ccccc1)N(Cc1ccccc1)Cc1ccccc1 (stereo not given) |  |  |  |  |  | > 100 |
